{"source": "paper PMC11802874", "about": "“The hypolipidemic effect of MI-883, the combined CAR agonist/ PXR antagonist, in diet-induced hypercholesterolemia model” (Nature Communications, 2025)", "key": {"GRα": {"biological_target": "GRα (Homo sapiens, UniProt P04150)", "sequence (P04150 whole entry)": "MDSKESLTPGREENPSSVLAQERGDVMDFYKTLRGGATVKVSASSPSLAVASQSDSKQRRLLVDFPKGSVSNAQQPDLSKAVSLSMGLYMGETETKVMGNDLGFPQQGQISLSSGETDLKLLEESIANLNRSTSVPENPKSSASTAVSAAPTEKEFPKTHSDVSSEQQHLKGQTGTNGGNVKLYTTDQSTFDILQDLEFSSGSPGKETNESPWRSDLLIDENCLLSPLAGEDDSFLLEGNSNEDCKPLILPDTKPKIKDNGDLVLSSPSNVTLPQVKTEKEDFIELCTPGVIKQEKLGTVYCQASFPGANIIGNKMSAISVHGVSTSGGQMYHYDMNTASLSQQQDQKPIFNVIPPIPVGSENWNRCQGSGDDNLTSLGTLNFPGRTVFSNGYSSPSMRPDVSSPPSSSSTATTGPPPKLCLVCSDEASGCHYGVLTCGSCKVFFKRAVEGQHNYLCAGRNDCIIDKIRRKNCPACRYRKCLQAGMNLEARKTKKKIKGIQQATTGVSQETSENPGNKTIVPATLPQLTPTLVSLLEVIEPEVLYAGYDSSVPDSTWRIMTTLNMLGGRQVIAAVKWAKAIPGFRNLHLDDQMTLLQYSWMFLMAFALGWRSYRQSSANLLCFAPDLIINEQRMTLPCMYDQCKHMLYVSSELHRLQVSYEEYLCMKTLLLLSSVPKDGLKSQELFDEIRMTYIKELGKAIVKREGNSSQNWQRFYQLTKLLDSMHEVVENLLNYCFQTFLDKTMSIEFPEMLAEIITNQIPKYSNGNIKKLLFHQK", "experiment": "Luciferase reporter gene assay GRα, HepG2", "conditions": "ligand: Dexamethasone 100 nM", "text": "Gal4-LBD constructs of tested nuclear receptors have been used together with pGL4.31[luc2P/GAL4UAS/Hygro] luciferase reporter construct and pRL-TK Renilla expression vector (both from Promega, Hercules, USA) in HepG2 cells transfected with Lipofectamine 2000 or 3000 reagents. For GRα and FXR receptors, full-length expression vectors have been used with pGRE-luc or pFXRE-luc luciferase constructs. For the aryl hydrocarbon receptor (AhR), p1A1-luc construct was used with only pRL-TK vector for transfection normalization. A dual reporter assay (Promega, Hercules, USA) was used to analyze both firefly and Renilla luciferase activities.\nGal4-LBD constructs of tested nuclear receptors have been used together with pGL5-luc luciferase reporter construct and pRL-TK Renilla expression vector in HepG2 cells transfected with Lipofectamine 2000 or 3000 reagents. For GRα and FXR receptors, full-length expression vectors have been used with pGRE-luc or pFXRE-luc luciferase constructs. For the aryl hydrocarbon receptor (AhR), p1A1-luc construct was used with only pRL-TK vector for transfection normalization. […] Bars represent means±S.D. (n=3)."}, "HepaRG KO CAR cells": {"test_system": "HepaRG KO CAR cells", "experiment": "RT-qPCR mRNA expression in HepaRG KO CAR cells", "assay_type": "cell-based, human", "conditions": "Phenobarbital 500 μM, CITCO 1 μM, MI 883 1 μM; ctrl = 1", "text": "(§3) HepaRG cells from Biopredic (Rennes, France) were cultivated and differentiated on the 12-well plates. […] Several batches of HepaRG KO CAR (CAR Knockout HepaRG™ Cells, MTOX1012-1VL, RRID:CVCL_B6AA) and PXR Knockout HepaRG™ Cells, MTOX1011-1VL, RRID:CVCL_B6AS) cells have been obtained from Sigma-Aldrich/Merck (Darmstadt, Germany) and cultivated according to the provider’s protocols. […] Experiments with HepaRG KO PXR and HepaRG KO CAR cells have been performed in duplicates at least in two independent experiments.\n(§4) RT-qPCR was used to examine gene expression in 2D and 3D PHH, HepaRG cells, or in mouse liver or intestine (ileum) samples as we have described before[60]–[62].\n(§5) All qRT-qPCR experiments including Trizol reagent (Life Technologies) total RNA isolation, reverse-transcription using a random hexaprimer, and the MMLV Reverse Transcriptase Kit (ThermoFisher Scientific) we have described before^19. qPCR was performed using TaqMan Fast Advanced Master Mix with TaqMan probes (ThermoFisher Scientific). […] The delta-delta method was used for gene expression quantification normalized to at least two reference genes. Three technical replicates were used for each reaction considering the MIQE guidelines. Data are presented as fold induction to vehicle-treated cells/animals."}, "[1]": {"experiment": "Stability in mouse plasma", "assay_type": "in vitro ADME", "conditions": "read-out: Stability in mouse plasma, t1/2", "excerpt": "(§1) Plasma protein binding, and stability in human and mouse plasma have been tested as previously described."}, "[2]": {"biological_target": "T1, human CAR ligand-binding domain (LBD) (Homo sapiens, UniProt Q14994)", "T1 construct": "purchased ThermoFisher Scientific PV4836", "T1 sequence (Q14994 109-348 isoform Q14994-2 limits assumed, other chains not shown)": "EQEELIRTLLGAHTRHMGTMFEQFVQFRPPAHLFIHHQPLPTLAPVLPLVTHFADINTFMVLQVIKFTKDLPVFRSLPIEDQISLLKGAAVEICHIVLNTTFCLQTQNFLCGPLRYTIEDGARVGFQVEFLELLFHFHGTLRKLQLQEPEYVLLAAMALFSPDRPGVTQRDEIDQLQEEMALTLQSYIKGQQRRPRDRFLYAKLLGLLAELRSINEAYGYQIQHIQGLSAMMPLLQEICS", "experiment": "TR-FRET CAR coactivator assay (LanthaScreen)", "assay_type": "biochemical"}, "[3]": {"test_system": "humanized PXR-CAR-CYP3A4/3A7 mice", "experiment": "Hepatic induction study in humanized PXR-CAR-CYP3A4/3A7 mice (i.p.)", "assay_type": "in vivo, mouse", "conditions": "single agents i.p.: Rif 3×5 mg/kg, CITCO 10 mg/kg two doses, MI-883 10 mg/kg 3 days", "excerpt": "In the induction experiments, […] was sampled from the gallbladder."}, "[4]": {"experiment": "Metabolic stability in mouse liver S9 fraction", "conditions": "male, CD-1, mouse, liver S9 fraction", "description": "(§2) Shimadzu HPLC system including vacuum degasser, gradient pumps, reverse phase HPLC column, column oven, and autosampler with an API 4000 QTRAP mass spectrometer (Applied Biosystems/MDS Sciex (AB Sciex) with Turbo V ion source and TurboIonspray interface were used. The reference compound midazolam, which is metabolized both by phase I and phase II enzymes, was used. The elimination constant (kel), half-life (t1/2), and intrinsic clearance (Clint) were determined[19] (Table S1)."}, "HepaRG cells": {"test_system": "HepaRG cells", "experiment": "RT-qPCR mRNA expression in differentiated HepaRG cells", "conditions": "Phenobarbital 500 μM, CITCO 1 μM, MI 883 1 μM; ctrl = 1", "text": "as §3, §4, §5"}, "[5]": {"experiment": "Mouse plasma protein binding", "assay_type": "in vitro ADME", "excerpt": "as §1"}, "[6]": {"test_system": "primary human hepatocytes (PHH)", "experiment": "RT-qPCR mRNA expression in 2D primary human hepatocytes", "text": "The cells were cultivated as 2D monolayers according to the manufacturer’s protocol.\nas §4"}, "[7]": {"experiment": "Metabolic stability in human liver S9 fraction", "conditions": "human, liver S9 fraction", "description": "as §2\nSupplementary Figure 1. […] Test compounds (1 μM, final DMSO concentration 1%) were incubated at 37 °C with shaking at 100 rpm. Four time points over 120 minutes have been analyzed. The reactions were stopped by adding 420 μL of acetonitrile-water mixture (90:10). Supernatants were analyzed by the HPLC system coupled with a tandem mass spectrometer. The percentage (in % of initial concertation) of the test compounds remaining after incubation in plasma and their half-lives (t1/2) were calculated. […] The stability of the compound was tested in human liver S9 fraction. Cofactors were used such as UDPGA (for glucuronidation), PAPS (for sulfation), and reduced glutathione (for conjugation of GSH). Compounds were tested in triplicate with or without NADPH. Propantheline and midazolam were used as unstable control compounds in the experiments. Data represent the means±S.D. from at least three independent samples."}, "human CAR variant 3": {"biological_target": "T2, human CAR variant 3 (Homo sapiens, UniProt Q14994, DEL233-236)", "T2 construct": "host or cells: HepG2", "T2 sequence (Q14994 with tags, fused parts or gaps isoform Q14994-8 DEL233-236)": "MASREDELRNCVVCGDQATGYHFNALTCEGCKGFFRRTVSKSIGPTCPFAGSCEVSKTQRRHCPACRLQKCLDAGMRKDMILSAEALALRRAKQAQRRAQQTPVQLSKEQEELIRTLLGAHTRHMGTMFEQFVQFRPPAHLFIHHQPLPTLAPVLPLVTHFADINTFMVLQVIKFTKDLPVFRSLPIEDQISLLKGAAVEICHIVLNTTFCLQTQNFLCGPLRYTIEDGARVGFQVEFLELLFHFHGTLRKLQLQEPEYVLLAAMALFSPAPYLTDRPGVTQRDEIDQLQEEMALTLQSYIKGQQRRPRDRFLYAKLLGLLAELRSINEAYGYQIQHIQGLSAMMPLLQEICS", "T2 sequence (P19793 1-462 partner)": "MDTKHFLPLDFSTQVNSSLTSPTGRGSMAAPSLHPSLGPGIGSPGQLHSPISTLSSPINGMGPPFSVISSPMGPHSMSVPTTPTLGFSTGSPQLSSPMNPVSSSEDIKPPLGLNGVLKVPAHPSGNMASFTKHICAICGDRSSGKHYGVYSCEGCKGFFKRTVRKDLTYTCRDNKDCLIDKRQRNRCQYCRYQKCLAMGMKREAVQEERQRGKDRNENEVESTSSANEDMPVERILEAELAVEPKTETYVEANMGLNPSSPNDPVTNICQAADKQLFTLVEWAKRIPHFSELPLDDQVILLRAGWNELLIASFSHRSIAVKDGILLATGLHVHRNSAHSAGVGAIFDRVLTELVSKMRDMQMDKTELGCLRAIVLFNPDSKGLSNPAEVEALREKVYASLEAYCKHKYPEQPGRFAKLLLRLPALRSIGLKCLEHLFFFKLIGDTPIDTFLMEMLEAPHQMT", "experiment": "CAR3 luciferase reporter assay (CYP2B6-luc) in HepG2 cells", "assay_type": "cell-based", "description": "CAR3 luciferase reporter assay (with CYP2B6-luc) was performed in human hepatocellular carcinoma HepG2 cells as we described[19] For the CAR3 assay (Fig. 1d), a CYP2B6-luc reporter plasmid (originally entitled B-1.6k/PB/XREM) was kindly donated by Dr. Hongbing Wang (University of Maryland School of Pharmacy, Baltimore, MD, USA). All expression vectors are described in Supplementary, Chapter 4).\nCells were treated for 24 h with MI-883 in a range of concentration from 0.1 nM to 30 µM (n = 3). The half maximal effective concentration (EC50) to activate CAR or inhibit PXR (IC50) in the assays was calculated from at least eight points of the dose-response curves using the GraphPad Prism software."}, "[8]": {"conditions": "single agent 5 μM: MI-883, CITCO (5 μM) alone"}}, "note": "Where “and” joins values, the source holds several entries; their conditions need not be identical. Equal entries are not always repeated.", "data": [{"compound": "C[C@@H]1C[C@H]2[C@@H]3CCC4=CC(=O)C=C[C@]4(C)[C@@]3(F)[C@@H](O)C[C@]2(C)[C@@]1(O)C(=O)CO", "note": "[Dexamethasone]", "values": [{"measurement": "NRs assays: GRa (relative to ctrl, replicates)", "setting": "GRα", "result": "19.01 and 18.01 and 16.69"}]}, {"compound": "Clc1ccc(-c2nc3sccn3c2C=NOCc2ccc(Cl)c(Cl)c2)cc1", "note": "[CITCO, 6-(4-chlorophenyl)imidazo[2,1-b][1,3]thiazole-5-carbaldehyde-O-(3,4-dichlorobenzyl)oxime, reference compound]", "values": [{"measurement": "CYP2B6 mRNA, RT-qPCR, HepaRG KO CAR (Fig. 1f), replicates", "setting": "HepaRG KO CAR cells", "result": "1.15 and 1.05 and 0.84"}, {"measurement": "half-life", "setting": "[1]", "result": "> 120", "unit": "min"}, {"measurement": "TR-FRET CAR Coactivator assay, mean signal (Fig. 1b)", "setting": "[2]; 100pM", "result": 1}, {"measurement": "TR-FRET CAR Coactivator assay, mean signal (Fig. 1b)", "setting": "[2]; 1nM", "result": 1.176}, {"measurement": "TR-FRET CAR Coactivator assay, mean signal (Fig. 1b)", "setting": "[2]; 10nM", "result": 1.375}, {"measurement": "TR-FRET CAR Coactivator assay, mean signal (Fig. 1b)", "setting": "[2]; 30nM", "result": 1.960}, {"measurement": "TR-FRET CAR Coactivator assay, mean signal (Fig. 1b)", "setting": "[2]; 100nM", "result": 2.115}, {"measurement": "TR-FRET CAR Coactivator assay, mean signal (Fig. 1b)", "setting": "[2]; 0.5μM", "result": 2.111}, {"measurement": "TR-FRET CAR Coactivator assay, mean signal (Fig. 1b)", "setting": "[2]; 1 μM", "result": 2.154}, {"measurement": "TR-FRET CAR Coactivator assay, mean signal (Fig. 1b)", "setting": "[2]; 10 μM", "result": 2.134}, {"measurement": "TR-FRET CAR Coactivator assay, mean signal (Fig. 1b)", "setting": "[2]; 30 μM", "result": 2.146}, {"measurement": "hepatic CYP3A4 mRNA, hPXR/hCAR/CYP3A4/7 mice (Fig. 3e), individual animals", "setting": "[3]", "result": "3.5706 and 5.153 and 1.198 and 3.457"}, {"measurement": "hepatic Cyp2b10 mRNA, hPXR/hCAR/CYP3A4/7 mice (Fig. 3e), individual animals", "setting": "[3]", "result": "6.356 and 6.521 and 7.777 and 9.457"}, {"measurement": "half-life", "setting": "[4]", "result": 39.2, "unit": "min"}, {"measurement": "microsomal CLint", "setting": "[4]", "result": 9, "unit": "µL/min/mg"}, {"measurement": "CYP2B6 mRNA, RT-qPCR, HepaRG (Fig. 1f), replicates", "setting": "HepaRG cells", "result": "6.95 and 5.3 and 5.5"}, {"measurement": "fraction unbound", "setting": "[5]", "result": 0.02}, {"measurement": "CYP2B6 mRNA, RT-qPCR, PHH (Fig. 1g), replicates", "setting": "[6]; 1 mM, ctrl = 1", "result": "10.10 and 18.10 and 7.00"}, {"measurement": "CYP2B6 mRNA in PHH 2 donors (Fig. 3c)", "setting": "[6]; [8]", "result": "11.1246 and 12.1237"}, {"measurement": "CYP3A4 mRNA in PHH 2 donors (Fig. 3c)", "setting": "[6]; [8]", "result": "2.55 and 3.999"}, {"measurement": "half-life at 2 µM", "setting": "[7]", "result": 22.5, "unit": "min"}, {"measurement": "microsomal CLint at 2 µM", "setting": "[7]", "result": 15, "unit": "µL/min/mg"}, {"measurement": "CAR3 variant activation (Fig. 1d), replicates", "setting": "human CAR variant 3; concentration 0.01 (unit not given), HepG2, 24 h", "result": "0.85 and 0.95 and 1.03"}, {"measurement": "CAR3 variant activation (Fig. 1d), replicates", "setting": "human CAR variant 3; concentration 0.1 (unit not given)", "result": "0.4 and 1 and 3.5"}, {"measurement": "CAR3 variant activation (Fig. 1d), replicates", "setting": "human CAR variant 3; concentration 1 (unit not given)", "result": "1.25 and 6.4 and 1.2"}, {"measurement": "CAR3 variant activation (Fig. 1d), replicates", "setting": "human CAR variant 3; concentration 10 (unit not given)", "result": "10 and 12.8 and 12"}, {"measurement": "CAR3 variant activation (Fig. 1d), replicates", "setting": "human CAR variant 3; concentration 30 (unit not given)", "result": "20.7 and 11.1 and 15.3"}]}]}
